Source: patent publication US6673798B2, “PDGF receptor kinase inhibitory compounds, their preparation, purification and pharmaceutical compositions including same” (Yissum Research Development Company of the Hebrew …, priority 1999, dated 2004)
Where two headings read alike, the source gives them in different places.

Columns and labels:
PDGFβR = biological target: T1, PDGFβR (Mus musculus, UniProt P05622); test: PDGFR autophosphorylation, purified receptor from Swiss 3T3 cell membranes (cell free); assay type: biochemical; conditions: for % of Control (percent autokinase activity): isolated PDGFβR; for IC50: isolated PDGFR from Swiss 3T3 cell membranes, read-out: IC50 (50% inhibition of phosphorylation)
T1 construct: A preparation of purified PDGFR from Swiss 3T3 cell membranes was used; endogenous in cells
T1 sequence (P05622 32-1098): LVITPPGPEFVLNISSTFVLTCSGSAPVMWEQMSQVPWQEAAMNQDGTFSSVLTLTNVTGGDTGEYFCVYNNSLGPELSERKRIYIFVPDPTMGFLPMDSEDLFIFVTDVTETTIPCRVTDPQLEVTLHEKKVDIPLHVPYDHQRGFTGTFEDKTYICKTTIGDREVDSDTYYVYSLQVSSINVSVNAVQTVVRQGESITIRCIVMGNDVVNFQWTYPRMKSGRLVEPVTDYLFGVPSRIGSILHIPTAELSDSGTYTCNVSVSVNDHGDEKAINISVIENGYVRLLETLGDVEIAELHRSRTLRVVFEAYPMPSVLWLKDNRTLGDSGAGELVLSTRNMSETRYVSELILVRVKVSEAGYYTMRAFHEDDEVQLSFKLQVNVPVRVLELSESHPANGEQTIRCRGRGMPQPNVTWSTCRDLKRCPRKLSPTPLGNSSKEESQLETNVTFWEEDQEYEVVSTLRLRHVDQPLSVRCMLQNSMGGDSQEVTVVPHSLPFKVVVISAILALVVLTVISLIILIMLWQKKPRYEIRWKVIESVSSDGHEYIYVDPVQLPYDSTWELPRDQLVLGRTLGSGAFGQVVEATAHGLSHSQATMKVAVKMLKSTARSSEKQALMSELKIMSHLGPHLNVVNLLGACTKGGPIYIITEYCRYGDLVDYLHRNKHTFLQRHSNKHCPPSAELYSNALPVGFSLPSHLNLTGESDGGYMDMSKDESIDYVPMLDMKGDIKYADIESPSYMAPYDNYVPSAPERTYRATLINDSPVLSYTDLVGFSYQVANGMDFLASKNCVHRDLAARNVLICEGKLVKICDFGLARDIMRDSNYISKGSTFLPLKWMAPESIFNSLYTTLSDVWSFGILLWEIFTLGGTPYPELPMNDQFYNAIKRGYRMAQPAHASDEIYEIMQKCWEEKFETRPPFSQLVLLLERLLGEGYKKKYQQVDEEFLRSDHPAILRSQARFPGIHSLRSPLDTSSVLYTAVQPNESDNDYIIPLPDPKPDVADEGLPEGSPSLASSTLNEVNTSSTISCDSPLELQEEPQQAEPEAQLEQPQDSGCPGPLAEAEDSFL
Description: In vitro effect of tyrphostins on purified PDGFR autophosphroylation: Membranes were prepared from confluent cultures of canine kidney epithelial cells (TRMP) or Swiss 3T3 cells as described. Further purification of the PDGF-βR was performed as described in [23]. Briefly, 2 μl kinase preparation were incubated for 20 minutes on ice in the presence of 2 μg/ml PDGF-BB in 20 μl of 50 mM Hepes (pH 7.4). Kinase reaction was executed for 10 minute on ice with 5 mM MnCl2, 1 mM vanadate, 10 μM [γ-^32P]ATP (2.5 μCi per reaction). The reaction was terminated by addition of 10 μl of a solution containing 6% SDS, 30% β-mercaptoethanol, 40% glycerol, and 0.5 mg/ml bromophenol blue. The samples were heated for 5 minutes at 95° C. and subjected to polyacrylamide gel electrophoresis in the presence of 0.4% SDS, using 7.5% polyacrylamide gels. The gels were stained, dried and subjected to autoradiographic analysis. For quantification of radioactivity in electrophoresis gels, a Phospho-Imager (Molecular Dynamics, Fuji, or Bio-Rad) was used according to the instructions of the manufacturer. To obtain autoradiograms, objects were exposed to X-ray film (Fuji RX or Kodak X-OMAT) with intensifying screens at −70° C.
Inhibition of PDGF-induced tyrosine phosphorylation by tyrphostins in vitro: A preparation of purified PDGFR from Swiss 3T3 cell membranes was used to assess and compare the inhibitory effects of tyrphostin compounds on tyrosine kinase activity. Various concentrations of the purified “transoid” isomers AG2033 and AG2043, were evaluated. Table 8 below presents IC50 values (50% inhibition of phosphorylation, μM) of AG2033 and AG2043. Data presents the potencies of the compounds with respect to PDGFR, as was determined using the isolated receptor (see experimental methods section above).
Kinase reactions, using an isolated PDGFβR preparation, in the presence of 0.03-3 μM tyrphostin, were conducted, utilizing [γ-^32P]ATP as probe. Densitometric evaluation, relative to control lacking the tyrphostin inhibitor (100%), results in the percent autokinase activity, presented in Table 8 and in the dose-response curves for the purified transoid isomers AG2033 (FIG. 6) and AG2043 (FIG. 7). Further comparison between the resulting autoradiogrms for each pair of geometrical isomers AG2033 and AG2034 (upper panel); AG2043 and AG2044 (lower panel), for their inhibitory activity towards PDGF-induced PDGFβR autophosphorylation (concentration range: 0.1-10 μM) in intact cells is presented in FIG. 8. […] Similar potency relation exists between the AG2043 and AG2044 isomers.

KDR = biological target: T2, KDR (Homo sapiens, UniProt P35968); test: KDR receptor phosphorylation in intact PAEC cells; assay type: cell-based; conditions: intact PAEC cells expressing KDR, VEGF stimulated; read-out: IC50 (50% inhibition of phosphorylation) KDR
T2 construct: expressed in transfected cells; host or cells: porcine aortic endothelial cells (PAEC), stably transfected
T2 sequence (P35968 20-1356): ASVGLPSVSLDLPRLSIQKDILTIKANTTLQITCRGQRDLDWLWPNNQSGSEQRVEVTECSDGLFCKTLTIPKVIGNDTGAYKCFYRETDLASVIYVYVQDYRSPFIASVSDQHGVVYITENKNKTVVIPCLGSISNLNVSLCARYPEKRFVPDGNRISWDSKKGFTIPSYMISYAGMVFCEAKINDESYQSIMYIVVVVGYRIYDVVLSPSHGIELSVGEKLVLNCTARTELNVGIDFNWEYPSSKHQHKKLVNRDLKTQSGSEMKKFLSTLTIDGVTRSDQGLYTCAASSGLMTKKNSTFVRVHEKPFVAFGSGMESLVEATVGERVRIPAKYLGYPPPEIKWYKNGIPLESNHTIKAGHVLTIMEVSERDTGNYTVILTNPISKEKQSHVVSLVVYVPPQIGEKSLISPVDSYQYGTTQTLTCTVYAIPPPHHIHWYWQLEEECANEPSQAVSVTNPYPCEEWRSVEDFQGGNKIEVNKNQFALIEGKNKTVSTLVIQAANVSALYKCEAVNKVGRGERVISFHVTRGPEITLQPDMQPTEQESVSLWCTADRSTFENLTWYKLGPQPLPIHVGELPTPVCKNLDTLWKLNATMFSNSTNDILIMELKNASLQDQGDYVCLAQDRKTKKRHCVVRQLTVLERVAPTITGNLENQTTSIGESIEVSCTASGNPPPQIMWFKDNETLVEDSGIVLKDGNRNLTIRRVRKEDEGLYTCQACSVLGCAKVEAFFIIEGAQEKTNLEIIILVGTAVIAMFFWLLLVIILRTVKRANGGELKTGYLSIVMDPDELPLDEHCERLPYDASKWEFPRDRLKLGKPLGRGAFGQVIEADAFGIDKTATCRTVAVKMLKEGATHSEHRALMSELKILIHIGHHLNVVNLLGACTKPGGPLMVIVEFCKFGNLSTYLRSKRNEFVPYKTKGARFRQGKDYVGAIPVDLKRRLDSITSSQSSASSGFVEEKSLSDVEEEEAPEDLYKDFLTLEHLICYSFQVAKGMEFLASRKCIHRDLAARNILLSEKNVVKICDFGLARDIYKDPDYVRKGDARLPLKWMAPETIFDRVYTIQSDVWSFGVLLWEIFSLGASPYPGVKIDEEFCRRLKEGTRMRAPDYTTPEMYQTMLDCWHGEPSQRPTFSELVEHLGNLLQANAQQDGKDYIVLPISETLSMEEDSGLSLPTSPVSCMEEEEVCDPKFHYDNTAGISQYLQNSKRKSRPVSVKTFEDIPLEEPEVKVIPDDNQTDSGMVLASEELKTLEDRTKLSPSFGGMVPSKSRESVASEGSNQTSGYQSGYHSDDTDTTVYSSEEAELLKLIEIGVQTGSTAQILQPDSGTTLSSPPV
Description: (§1) Effect of tyrphostins on PDGF-induced PDGFR autophosphorylation in intact PAEC cells: PAEC cells, transfected with either PDGFR or KDR, cultivated in Ham's F-12 medium supplemented with 10% fetal calf serum (FCS), were synchronized for 20 hours in a medium containing 0.01% BSA. […] After stimulation, the cells were solubilized in Nonidet P-40 (1%) containing lysis buffer.
The analysis of KDR receptor phosphorylation was performed as follows. Cell lysates were subjected to immunoprecipitation using the KDR specific antiserum. The precipitates were subjected to polyacrylamide (7.5%) gel electrophoresis in presence of sodium dodecyl sulfate (SDS-PAGE) and were thereafter blotted onto a nitrocellulose membrane (Hybond C-EXTRA, Amersham). Phosphorylated proteins were detected by immunoblotting using the horseradish-peroxidase conjugated phosphotyrosine antibody RC20H (Transduction Laboratories), followed by chemoluminescence-based detection (ECL, Amersham) and autoradiography.

[1] = test system: human coronary artery SMC (HCASMC); test: HCASMC migration (Boyden chamber); assay type: cell-based
Description: Human coronary artery endothelial cells (HCAEC) and human coronary artery smooth muscle cells (HCASMC) were purchased from Clonetics (Heidelberg), and grown in EBM medium (supplemented with EGM-MV SINGLE QUOTS®) or in SmBM medium (supplemented with SmGM-2 SINGLE QUOTS®), respectively (Clonetics).
Assessment of cell migration (Chemotaxis assay): The chemotactic response of HCASMC, PAEC/KDR and PAEC/PDGFR cells was assessed using the modified Boyden chamber (Neuro Probe, Inc.) and collagen-coated polycarbonate filters (Nucleopore) with pore diameters of 8 μm as previously described. Briefly, PAEC/KDR and PAEC/PDGFR cells were cultivated and assayed in Ham's F12 medium containing 10% FCS. HCASMC were cultivated in SmGM-2 (clonetics) and assayed in SmBM-WM containing 10% FCS and 0.1% BSA. To the medium in the lower part of the Boyden chamber, either VEGF or PDGF-BB (10 ng/ml, respectively) were added. AG2033 was added to both upper and lower chamber parts. Suspended cells were given 4 hours for migration, after a preincubation period of 15 minute in AG2033. The number of cells that migrated without PDGF-BB or VEGF stimulation was referred to as 100% migration (chemokinesis). The assay was performed in triplicate, and five medium-power fields were counted per well using a light microscope (Jenalab).
Further evaluation of HCASMC cells migration toward PDGD-BB, in the presence of purified “transoid” isomers, was conducted in a Boyden chamber (see experimental section, above).

PDGF β-receptor = PDGF β-receptor (Homo sapiens, UniProt P09619); test: PDGF-induced PDGFR autophosphorylation in intact PAEC cells; assay type: cell-based; design: expressed in transfected cells; host or cells: porcine aortic endothelial cells (PAEC), stably transfected; conditions: intact PAEC cells expressing PDGFR, PDGF-BB stimulated; read-out: IC50 (50% inhibition of phosphorylation) PDGFR
Sequence of PDGF β-receptor (P09619 33-1106): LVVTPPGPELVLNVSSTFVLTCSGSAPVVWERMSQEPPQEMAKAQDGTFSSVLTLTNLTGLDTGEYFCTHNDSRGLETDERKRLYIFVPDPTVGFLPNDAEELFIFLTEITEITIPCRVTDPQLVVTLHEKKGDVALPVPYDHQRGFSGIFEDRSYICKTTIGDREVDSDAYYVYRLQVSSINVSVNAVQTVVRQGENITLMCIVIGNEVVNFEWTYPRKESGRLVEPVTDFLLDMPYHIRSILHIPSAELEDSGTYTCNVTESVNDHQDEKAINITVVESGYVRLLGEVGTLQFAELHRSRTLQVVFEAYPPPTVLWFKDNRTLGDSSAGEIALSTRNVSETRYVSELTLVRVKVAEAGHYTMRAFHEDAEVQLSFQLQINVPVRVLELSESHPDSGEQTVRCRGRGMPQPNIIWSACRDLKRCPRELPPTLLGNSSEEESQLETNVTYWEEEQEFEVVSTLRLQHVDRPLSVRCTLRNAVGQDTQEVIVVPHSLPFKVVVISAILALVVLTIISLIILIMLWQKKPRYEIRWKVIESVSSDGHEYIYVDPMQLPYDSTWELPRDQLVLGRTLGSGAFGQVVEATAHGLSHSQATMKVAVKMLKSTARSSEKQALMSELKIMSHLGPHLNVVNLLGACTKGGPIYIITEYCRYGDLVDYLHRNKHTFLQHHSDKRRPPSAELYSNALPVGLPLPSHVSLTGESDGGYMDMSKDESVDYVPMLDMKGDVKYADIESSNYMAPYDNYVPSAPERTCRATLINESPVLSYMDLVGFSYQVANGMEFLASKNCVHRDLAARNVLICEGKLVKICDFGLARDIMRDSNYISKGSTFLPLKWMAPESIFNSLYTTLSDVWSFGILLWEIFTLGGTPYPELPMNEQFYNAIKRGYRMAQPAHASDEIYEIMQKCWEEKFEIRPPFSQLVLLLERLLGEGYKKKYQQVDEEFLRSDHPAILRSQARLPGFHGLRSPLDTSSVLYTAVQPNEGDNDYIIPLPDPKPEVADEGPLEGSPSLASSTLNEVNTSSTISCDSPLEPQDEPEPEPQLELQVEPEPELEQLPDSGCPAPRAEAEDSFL
Description: as §1
The analysis of PDGF β-receptor phosphorylation was performed as follows. Cell lysates were subjected to immunoprecipitation using the PDGF β-receptor specific antiserum R3 [5]. The precipitates were subjected to polyacrylamide (7.5%) gel electrophoresis in presence of sodium dodecyl sulfate (SDS-PAGE) and were thereafter blotted onto a nitrocellulose membrane (Hybond C-EXTRA, Amersham). Phosphorylated proteins were detected by immunoblotting using the horseradish-peroxidase conjugated phosphotyrosine antibodies PY20 and 4G10 (Upstate Biotechnology), followed by application of secondary horseradish-peroxidase conjugated goat-anti-mouse antibody and chemoluminescence-based detection (ECL, Amersham) and autoradiography.
The data in Table 9 presents the differential potencies of the various compounds with respect to PDGFR and KDR, as was performed on intact PAEC cells expressing these receptors (see experimental methods section above).

[2] = 0.03 μM tyrphostin, [γ-32P]ATP, densitometry
[3] = absence of PDGF-BB, read-out: IC50 of basal migratory activity of HCASMC
[4] = presence of PDGF-BB, read-out: IC50 of induced migratory activity of HCASMC

| SMILES | % of Control (percent autokinase activity) (PDGFβR; [2]) | % of Control (percent autokinase activity) (PDGFβR; 0.1 μM tyrphostin) | % of Control (percent autokinase activity) (PDGFβR; 0.3 μM tyrphostin) | % of Control (percent autokinase activity) (PDGFβR; 1 μM tyrphostin) | % of Control (percent autokinase activity) (PDGFβR; 3 μM tyrphostin) | IC50 (PDGFβR) [nM] | IC50 (KDR) [µM] | IC50 [1, 3] [nM] | IC50 [1, 4] [nM] | IC50 (PDGF β-receptor) [nM] |
| --- | --- | --- | --- | --- | --- | --- | --- | --- | --- | --- |
| Cc1nc2cc3nc(-c4ccccc4)cnc3cc2n1C [AG2033, 1,2-dimethyl-6-phenyl imidazolo[5,4-g]quinoxaline] | 97.9 % of Control | 37 % of Control | 17.9 % of Control | 13.7 % of Control | 9.8 % of Control | 70 | > 10 | < 10000 | < 3000 | 500 |
| Cc1nc2cc3nc(-c4cccs4)cnc3cc2n1C [AG2043, 1,2-dimethyl-6-(2-thiophene) imidazolo[5,4-g]quinoxaline] | 60.1 % of Control | 41.6 % of Control | 40.4 % of Control | 15.1 % of Control | 11 % of Control | 90 | 3 | < 10000 | ~3000 | 1000 |
